According to patent US9359378B2, “Substituted oxazolo[3,4-a]pyrazines as pharmaceutcals” (BIOLAB SANUS FARMACÊUTICA LTDA., priority 2014, dated 2016):

Test system: rabbit's corpus cavernosum
Test: Relaxing effect in isolated rabbit's corpus cavernosum strips pre-contracted with phenylephrine (isometric tension)
Design: species or system New Zealand White rabbits
Conditions: strips pre-contracted with 1 μM PE; FIGS. 12 and 13
Experimental: For this study, New Zealand White rabbits (2 to 3.5 kg) were used to obtain penile tissue which was excised and transferred to a chilled Krebs solution. For this study, we used cavernosum strips (CC) of the penile tissue of New Zealand White rabbits. The strips were mounted in 10 ml tissue incubation chambers containing Krebs solution at 37° C., pH occurring between 7.3 and 7.5; continuously bubbled with a mixture of 95% oxygen (O2) and 5% carbon dioxide (CO2). An initial tension of 10 mN were applied on the tissues, followed by a 60 minute stabilization period. Changes in tension (isometric force) were obtained using isometric transducers (ADInstruments, Australia) and recorded in a data acquisition system PowerLab 4/30 (Chart Software, version 7.3.7, ADInstruments, MA, USA for BL-230 and version 7.0 ADInstruments, MA for the BL-236). […] Cumulative curve responses to the concentration of BL-230 compounds and tadalafil (0.001 to 10 μM) were obtained in the pre-contracted rabbit corpus cavernosum strips with 1 μM PE.

## CN1CC(=O)N2[C@H](c3ccc4c(c3)OCO4)c3[nH]c4ccccc4c3C[C@@H]2C1=O [tadalafil, reference compound]
  percentage of relaxation in rabbit's corpus cavernosum: around 100%
